Measured values reported in PubChem BioAssay AID248 (DTP/NCI, 2004).
Where “and” joins values, the source holds several entries; their conditions need not be identical. Equal entries are not always repeated. Inconclusive results and toxic doses are left out. Rule as the data show it: active = T/C of 150% or more; inactive = T/C below 125%.

Tested on: L1210 leukemia ip in BDF1 mice, survival T/C
Experiment: NCI In Vivo Anticancer Drug Screen. Data for tumor model L1210 Leukemia (intraperitoneal) in B6D2F1 (BDF1) mice
Settings: endpoint: mean survival time, higher = longer survival
How it was run: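 Transplantable tumor model; survival measured in treated vs vehicle control mice. Value = treated/control.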

[1] = dose: 12.5 mg/kg/injection, schedule: Q04DX002 (ip), vehicle: Klucel (hydroxypropylcellulose) (HPC)
[2] = dose: 25.0 mg/kg/injection, schedule: Q04DX002 (ip), vehicle: Klucel (hydroxypropylcellulose) (HPC)
[3] = dose: 50.0 mg/kg/injection, schedule: Q01DX001 (ip), vehicle: Klucel (hydroxypropylcellulose) (HPC)
[4] = dose: 50.0 mg/kg/injection, schedule: Q04DX002 (ip), vehicle: Klucel (hydroxypropylcellulose) (HPC)
[5] = dose: 100.0 mg/kg/injection, schedule: Q04DX003 (ip), vehicle: saline with Tween-80
[6] = dose: 200.0 mg/kg/injection, schedule: Q04DX003 (ip), vehicle: saline with Tween-80
[7] = dose: 400.0 mg/kg/injection, schedule: Q04DX003 (ip), vehicle: saline with Tween-80
[8] = dose: 100.0 mg/kg/injection, schedule: Q01DX009 (ip), vehicle: saline
[9] = dose: 200.0 mg/kg/injection, schedule: Q01DX009 (ip), vehicle: saline

Measured: T/C

Cc1ccc(Oc2cccc3c2CC[N+](C)(C)C3)cc1
inactive: dose: 6.25 mg/kg/injection, schedule: Q04DX002 (ip), vehicle: Klucel (hydroxypropylcellulose) (HPC) 96 % of control | dose: 12.5 mg/kg/injection, schedule: Q01DX001 (ip), vehicle: Klucel (hydroxypropylcellulose) (HPC) 97 % of control | [1] 96 % of control | [2] 100 % of control | [3] 94 % of control

O=c1[nH]c2c(Cl)cccc2c2ccccc12
inactive: dose: 100.0 mg/kg/injection, schedule: Q01DX001 (ip), vehicle: carboxymethylcellulose (CMC) 100 % of control | dose: 200.0 mg/kg/injection, schedule: Q01DX001 (ip), vehicle: carboxymethylcellulose (CMC) 107 % of control | dose: 400.0 mg/kg/injection, schedule: Q01DX001 (ip), vehicle: carboxymethylcellulose (CMC) 102 % of control

CCOC(=O)CC1=NCCc2cc(OC)c(OC)cc21
inactive: [2] 102 % of control | [4] 99 % of control | dose: 100.0 mg/kg/injection, schedule: Q04DX002 (ip), vehicle: Klucel (hydroxypropylcellulose) (HPC) 96 % of control

CCC1=C(c2ccc(OC)cc2)CCC(C(=O)O)C1C (configuration not stated)
inactive: dose: 6.0 mg/kg/injection, schedule: Q01DX Z (ip), vehicle: saline 100 % of control | dose: 12.0 mg/kg/injection, schedule: Q01DX Z (ip), vehicle: saline 96 % of control | dose: 25.0 mg/kg/injection, schedule: Q01DX Z (ip), vehicle: saline 102 % of control | dose: 50.0 mg/kg/injection, schedule: Q01DX Z (ip), vehicle: saline 100 % of control | dose: 100.0 mg/kg/injection, schedule: Q01DX Z (ip), vehicle: saline 102 % of control | dose: 200.0 mg/kg/injection, schedule: Q01DX Z (ip), vehicle: saline 100 % of control | dose: 400.0 mg/kg/injection, schedule: Q01DX Z (ip), vehicle: saline 110 % of control | dose: 800.0 mg/kg/injection, schedule: Q01DX Z (ip), vehicle: saline 98 % of control and 120 % of control

Cc1c(Cl)cccc1NC(=O)Oc1ccccc1Cc1ccccc1
inactive: dose: 50.0 mg/kg/injection, schedule: Q01DX009 (ip), vehicle: saline with Tween-80 96 % of control and 102 % of control | dose: 100.0 mg/kg/injection, schedule: Q01DX001 (ip), vehicle: saline with Tween-80 95 % of control | dose: 100.0 mg/kg/injection, schedule: Q04DX002 (ip), vehicle: saline with Tween-80 96 % of control and 110 % of control | [5] 100 % of control | dose: 200.0 mg/kg/injection, schedule: Q01DX001 (ip), vehicle: saline with Tween-80 105 % of control | dose: 200.0 mg/kg/injection, schedule: Q04DX002 (ip), vehicle: saline with Tween-80 93 % of control and 92 % of control | [6] 94 % of control | dose: 400.0 mg/kg/injection, schedule: Q01DX001 (ip), vehicle: saline with Tween-80 86 % of control | dose: 400.0 mg/kg/injection, schedule: Q01DX009 (ip), vehicle: saline with Tween-80 97 % of control and 89 % of control | dose: 400.0 mg/kg/injection, schedule: Q04DX002 (ip), vehicle: saline with Tween-80 89 % of control and 91 % of control | [7] 86 % of control

N=C(N)SCc1csc(N)n1
inactive: dose: 25.0 mg/kg/injection, schedule: Q04DX003 (ip), vehicle: saline 119 % of control | dose: 50.0 mg/kg/injection, schedule: Q04DX003 (ip), vehicle: saline 111 % of control | [8] 112 % of control | dose: 100.0 mg/kg/injection, schedule: Q04DX003 (ip), vehicle: saline 100 % of control and 117 % of control | [9] 96 % of control

c1ccc(-c2cscc2-c2ccccc2)cc1
inactive: dose: 25.0 mg/kg/injection, schedule: Q01DX009 (ip), vehicle: saline 105 % of control | dose: 50.0 mg/kg/injection, schedule: Q01DX009 (ip), vehicle: saline 96 % of control | [8] 100 % of control | [9] 97 % of control | dose: 400.0 mg/kg/injection, schedule: Q01DX009 (ip), vehicle: saline 98 % of control

CCCCCC(C)n1c(C)cc(=O)n1C(C)CCCCC (configuration not stated)
inactive: dose: 75.0 mg/kg/injection, schedule: Q01DX001 (ip), vehicle: other 92 % of control | dose: 150.0 mg/kg/injection, schedule: Q01DX001 (ip), vehicle: other 97 % of control

O=[N+]([O-])c1ccc2c3c(ccc(Br)c13)CC2
inactive: dose: 100.0 mg/kg/injection, schedule: Q01DX009 (ip), vehicle: saline sonified 103 % of control | dose: 100.0 mg/kg/injection, schedule: Q04DX003 (ip), vehicle: Klucel (hydroxypropylcellulose) (HPC) 106 % of control | dose: 200.0 mg/kg/injection, schedule: Q01DX009 (ip), vehicle: saline sonified 103 % of control | dose: 200.0 mg/kg/injection, schedule: Q04DX003 (ip), vehicle: Klucel (hydroxypropylcellulose) (HPC) 98 % of control | dose: 400.0 mg/kg/injection, schedule: Q01DX009 (ip), vehicle: saline sonified 100 % of control | dose: 400.0 mg/kg/injection, schedule: Q04DX003 (ip), vehicle: Klucel (hydroxypropylcellulose) (HPC) 92 % of control

O=c1ccn(Cc2ccccc2)c(=S)[nH]1
inactive: dose: 50.0 mg/kg/injection, schedule: Q01DX001 (ip), vehicle: saline 97 % of control | dose: 100.0 mg/kg/injection, schedule: Q01DX001 (ip), vehicle: saline 94 % of control | dose: 200.0 mg/kg/injection, schedule: Q01DX001 (ip), vehicle: saline 97 % of control | dose: 400.0 mg/kg/injection, schedule: Q01DX001 (ip), vehicle: saline 100 % of control

CCCCCOc1ccc(C=Nc2ccc(C)cc2)cc1
inactive: dose: 100.0 mg/kg/injection, schedule: Q01DX009 (ip), vehicle: Klucel (hydroxypropylcellulose) (HPC) 98 % of control | dose: 200.0 mg/kg/injection, schedule: Q01DX009 (ip), vehicle: Klucel (hydroxypropylcellulose) (HPC) 103 % of control

O=C(O)c1sccc1-c1cccc2ccccc12
inactive: [3] 94 % of control | dose: 100.0 mg/kg/injection, schedule: Q01DX001 (ip), vehicle: Klucel (hydroxypropylcellulose) (HPC) 96 % of control | dose: 200.0 mg/kg/injection, schedule: Q01DX001 (ip), vehicle: Klucel (hydroxypropylcellulose) (HPC) 94 % of control

[Cl][Pt+2][Cl].[NH-]C(CCCN)C(=O)O.[NH-]C(CCCN)C(=O)O (configuration not stated)
inactive: dose: 50.0 mg/kg/injection, schedule: Q04DX003 (ip), vehicle: saline with Tween-80 103 % of control | [5] 104 % of control and 115 % of control | [6] 97 % of control and 102 % of control

COc1cccc2c1CCC/C2=N\N(C)C
inactive: dose: 100.0 mg/kg/injection, schedule: Q04DX003 (sc), vehicle: olive oil, sesame oil, peanut oil 107 % of control | dose: 200.0 mg/kg/injection, schedule: Q04DX003 (sc), vehicle: olive oil, sesame oil, peanut oil 105 % of control | dose: 400.0 mg/kg/injection, schedule: Q04DX003 (sc), vehicle: olive oil, sesame oil, peanut oil 109 % of control

CCCCNc1ncnc2c1nnn2C1OC(CO)C(O)C1O (configuration not stated)
inactive: [1] 100 % of control | [2] 94 % of control | [4] 97 % of control

C=C(Cl)CN(CC)CCO
inactive: [5] 98 % of control | [6] 102 % of control | [7] 108 % of control

O=C(c1ccc(Cl)cc1Cl)C(CS(=O)(=O)O)CS(=O)(=O)O
inactive: [5] 99 % of control | [6] 98 % of control | [7] 100 % of control
